Each structure is given as a SMILES string.

For orientation: melting point means the temperature, or range, at which the solid turns liquid.

For one series, the target named is T1, TIE2 (Homo sapiens, UniProt Q02763).
T1 construct: amino acids of the intracellular domain 776-1124; made in house; host or cells: baculovirus expression (pFastBacGT)
The series is described as follows: Tie2 phosphorylation of PLC test (GST-Tie2, FlashPlate). The format is biochemical. Conditions: GST-Tie2 intracellular domain 776-1124, GST-PLC substrate, 33P-ATP, one hour at 37° C.; read-out: IC 50 TIE2. As for the experimental part: The coding sequence of human Tie2 corresponding to the amino acids of the intracellular domain 776-1124 was generated by PCR using the cDNA isolated from a human placenta as a model. This sequence was introduced into a pFastBacGT baculovirus expression vector in the form of a GST fusion protein.
The inhibitory effect of the molecules is determined in a test of phosphorylation of PLC with Tie2 in the presence of GST-Tie2 purified to about 80% homogeneity. The substrate is composed of the SH2-SH3 fragments of PLC expressed in the form of a GST fusion protein.
The kinase activity of Tie2 is measured in a MOPS 20 mM pH 7.2 buffer, containing 10 mM MgCl2, 10 mM MnCl2, 1 mM DTT, 10 mM of glycerophosphate. In a 96-well FlashPlate plate maintained on ice, a reaction mixture is deposited, composed of 70 μL of kinase buffer containing 100 ng of enzyme GST-Tie2 per well. Next, 10 μL of the test molecule diluted in DMSO to a maximum concentration of 10% are added. For a given concentration, each measurement is performed four times. The reaction is initiated by adding 20 μl of solution containing 2 μg of GST-PLC, 2 μm of cold ATP and 1 μCi of ^33P[ATP]. After incubation for one hour at 37° C., the reaction is stopped by adding 1 volume (100 μl) of 200 mM EDTA. After removal of the incubation buffer, the wells are washed three times with 300 μL of PBS. The radioactivity is measured on a MicroBeta 1450 Wallac.
The inhibition of the Tie2 activity is calculated and expressed as a percentage of inhibition relative to the control activity determined in the absence of compound.

Another series concerns the target T2, Aurora A (Homo sapiens, UniProt O14965).
T2 construct: Aurora2: whole recombinant protein comprising an N-terminal histidine tail; His (N); made in house; host or cells: E. coli
T2 sequence (O14965 1-403): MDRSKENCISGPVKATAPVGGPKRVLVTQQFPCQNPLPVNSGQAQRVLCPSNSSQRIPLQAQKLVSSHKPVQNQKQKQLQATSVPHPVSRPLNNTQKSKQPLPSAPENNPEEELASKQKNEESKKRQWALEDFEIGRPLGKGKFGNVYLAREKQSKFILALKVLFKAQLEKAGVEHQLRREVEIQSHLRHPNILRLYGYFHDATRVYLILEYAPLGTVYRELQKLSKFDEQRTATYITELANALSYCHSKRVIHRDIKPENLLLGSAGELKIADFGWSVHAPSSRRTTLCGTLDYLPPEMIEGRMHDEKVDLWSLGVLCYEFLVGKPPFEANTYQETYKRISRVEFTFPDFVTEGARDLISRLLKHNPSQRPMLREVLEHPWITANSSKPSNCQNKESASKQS
Nature of the series: Aurora2 (Aurora-A) enzymatic test, NuMA substrate phosphorylation, radioactivity detection. The format is biochemical. Conditions: 10 nM Aurora2, 500 nM NuMA, 1 μM ATP, 30 minutes, 37° C.; read-out: IC 50 Aurora A. As for the experimental part:
The inhibitory effect of compounds with respect to the kinases Aurora1 and Aurora2 is determined by means of an enzymatic test using radioactivity detection.
The kinase activity of Aurora1 and Aurora2 is evaluated via the phosphorylation of the substrate Numa-histidine in the presence of radiolabelled ATP ([^33P]ATP) using 96-well Flashplate plates in which the nickel chelate is bound to the surface of the microplate. The amount of ^33P phosphate incorporated into the NuMA substrate is proportional to the activity of the enzyme Aurora1 or Aurora2.
Aurora2: whole recombinant protein comprising an N-terminal histidine tail, was expressed in E. coli and purified to more than 82%.
NuMA (nuclear protein that combines with the mitotic apparatus): 424-amino acid fragment, expressed in E. coli, the N-terminal end of which has been labelled with histidine, and used as substrate for the two Aurora enzymes.
The microplates used are 96-well Flash-Plate plates, nickel chelate (Perkin-Elmer, model SMP107).
The products to be evaluated are incubated in a reaction volume of 100 μL per well, in the presence of 10 nM of Aurora1 or Aurora2, 500 nM of NuMA substrate in a buffer composed of 50 mM Tris/HCl (pH 7.5), 50 mM NaCl, 5 mM MgCl2 (Aurora-B) or 10 mM MgCl2 (Aurora-A) and 1 mM DTT, at 37° C.
80 μL of enzyme/substrate incubation buffer are distributed in each well, followed by 10 μL of product to be evaluated, at variable concentrations. The reaction is initiated by adding 1 μM final of ATP containing 0.2 μCi of [^33P]ATP (10 μL). After incubating for 30 minutes, the reaction is quenched by simple removal of the reaction buffer and each well is washed twice with 300 μl of Tris/HCl buffer. The radioactivity is then measured in each well using a Packard, Top-Count model scintillation machine.
The control enzymatic activity of Aurora is expressed by the number of counts per minute obtained over 30 minutes after subtracting the background noise (reaction mixture containing no enzyme). The evaluation of the various test products is expressed as a percentage of inhibition of the Aurora activity relative to the control.

T1 sequence (Q02763 776-1124): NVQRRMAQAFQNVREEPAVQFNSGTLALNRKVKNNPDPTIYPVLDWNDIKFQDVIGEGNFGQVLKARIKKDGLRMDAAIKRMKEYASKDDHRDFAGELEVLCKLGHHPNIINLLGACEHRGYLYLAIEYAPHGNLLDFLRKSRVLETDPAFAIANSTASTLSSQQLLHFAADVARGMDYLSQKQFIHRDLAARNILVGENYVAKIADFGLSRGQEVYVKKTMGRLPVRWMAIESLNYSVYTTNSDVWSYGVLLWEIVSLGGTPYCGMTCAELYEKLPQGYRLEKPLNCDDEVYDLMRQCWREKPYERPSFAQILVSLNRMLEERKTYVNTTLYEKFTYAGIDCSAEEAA

Compound `NC(=O)c1[nH]c2cnccc2c1-c1ccc(NC(=O)Nc2cc(C(F)(F)F)ccc2F)cc1` [Example 1, 3-{4-[3-(2-Fluoro-5-trifluoromethylphenyl)ureido]phenyl}-1H-pyrrolo[2,3-c]pyridine-2-carboxamide] displayed a melting point of 286 °C. Besides, the IC50 on TIE2 turned out to be 4 nM. For the same compound, at Aurora A, the IC50 was determined as 172 nM.
The corresponding values for `COc1ccc(C)cc1NC(=O)Nc1ccc(-c2c(C(N)=O)[nH]c3cnccc23)cc1` [Example 2, 3-{4-[3-(2-Methoxy-5-methylphenyl)ureido]phenyl}-1H-pyrrolo[2,3-c]pyridine-2-carboxamide] are 227 °C, 21 nM and 222 nM.
In the case of `Cc1ccc(F)c(NC(=O)Nc2ccc(-c3c(C(N)=O)[nH]c4cnccc34)cc2)c1.O=C(O)C(F)(F)F` [Example 5, 3-{4-[3-(2-Fluoro-5-methylphenyl)ureido]phenyl}-1H-pyrrolo[2,3-c]pyridine-2-carboxamide trifluoroacetate], the melting point amounted to 222 °C. The IC50 at TIE2 stood at 47 nM. Further, the IC50 at Aurora A came out at 131 nM.
The corresponding values for `NC(=O)c1[nH]c2ncccc2c1-c1ccc(NC(=O)Nc2cc(C(F)(F)F)ccc2F)cc1` [Example 7, 3-{4-[3-(2-Fluoro-5-trifluoromethylphenyl)ureido]phenyl}-1H-pyrrolo[2,3-b]pyridine-2-carboxamide] are 232 °C, 9 nM and 553 nM.

The values above are taken from patent US7947706B2, “Substituted pyrrolopyridines, compositions containing them, manufacturing process therefor and use thereof” (Sanofi-Aventis Deutschland GmbH, priority 2005, dated 2011).
